Assay results as given in US5310938A, “Substituted arylpyrrole compounds” (American Cyanamid Company, priority 1993, dated 1994).
Where “and” joins values, the source holds several entries; their conditions need not be identical. Equal values may be shown once.

What was measured:
Caenorhabditis elegans = experiment: Nematicidal activity against C. elegans (motility rating); format: in vivo, C. elegans (Bristol strain); design: key: 9: complete kill; 8: no motility; 7: markedly reduced motility in approximately 95% of worms; 6: reduced motility; 5: slightly reduced motility; 0: normal motility, same as controls; conditions: read at 4 and 24 hours post-immersion
Experimental: Cultures of C. elegans (Bristol strain from J. Lewis) are maintained on E. coli lawns on NG Agar Plates at 20° C. New cultures are established weekly.
Nematodes for testing are washed from 4-5 day old cultures using Fresh Ascaris Ringers Solution (FARS). The worms are further washed with FARS,-containing gentamycin, to reduce bacterial contamination and centrifuged to separate worms from wash solution. This procedure is repeated three times. The washed worms are then added to C. brigassae Maintenance Medium (CbMM), from GIBCOa to which is added gentamycin (600 units/ml) and mycostatin (0.5 mg/ml).
Compounds are dissolved in acetone and made up to volume with equal parts of water. The final test concentration of each compound in the mixture is 150 ppm. The test material is micropipetted (25 ul) into a single well of a 96-well sterile tissue culture plate (COSTAR)^b and the solvent allowed to evaporate. These "treated" plates are used immediately or stored in a refrigerator without apparent adverse effects on the compounds.
A freshly prepared volume ([…]) of C. elegans in CbMM is micropipetted into each treated well and several control wells per plate. Culture plates are incubated at 20° C.
Observations for efficacy are made under a dissecting microscope at 4 and 24 hours post-immersion. Immediately prior to reading the plate, it is gently tapped to stimulate the movement of the worms. Activity is judged based on the drug effects on motility of the adults and larvae. […] Other factors indicating activity are easily noted such as death, rigor mortis, contraction, coiling, paralysis, abnormal twitching, reduced worm population in 48 hours and other deviation from normal behavior.
Day 0 Inoculate E. Coli-NG Agar Dish With 30-40
Day 4 Harvest New C. Elegans Population
Add C. Elegans (25-100 µL) To "Medicated"
Observe for Activity at 4 hours Post-
Day 5 Observe For Activity

[1] = test system: Trichostrongylus colubriformis; experiment: Control of helminths (T. colubriformis) in infected gerbils; format: in vivo, Trichostrongylus colubriformis (sheep origin) in gerbils; conditions: 500 PPM in diet, 4 days
From the text: Each test generally consists of 75 infected gerbils, randomly distributed 2 or 3 per cage (the number of animals per cage is consistent within a specific experiment). Generally, there are 8-9 untreated control gerbils (3-4 cages) per test. The remaining cages are assigned a treatment, usually 1 cage per compound or dose.
Compounds administered in diet are fed for 4 days. Animals treated by gavage or injection are generally treated on only 1 day (usually day 7).
In accordance with this test, gerbils are each orally infected by gavage, with about 400 Trichostrongylus colubriformis infective larvae of sheep origin. The infected animals are then permitted to feed and drink ad libitum for six days. On day 7 the infected gerbils are randomly placed in rodent cages 2 or 3 animals per cage. The animals in each cage are weighed and the feed for each cage weighed. If the treatment to be evaluated is medicated feed, said medicated feed is offered on day 7 and continued through day 11 of the trial. If the treatment to be evaluated is a single oral dose or a parenteral treatment, the animals are given the medication by gavage or injection on day 7 and receive unmedicated feed and water through day 11 of the trial. On day 11 the animals and their feed are weighed. Thereafter the animals are euthanized by CO2 inhalation and their small intestines removed, inverted on application sticks and incubated in tap water at 39° C. for 1-5 hours. The sticks and intestines are then discarded and the worms from each treatment counted to determine the % mortality of the worms as compared to untreated controls.

Psoroptes cuniculi = experiment: Filter paper contact test against Psoroptes cuniculi (Rabbit Ear Mite); format: in vivo; conditions: Psoroptes ovis, 24 hour; for mortality at 4 µg/cm2, 4 µg/cm2: 4.0 μg/cm^2, read-out: 24 hour % Mortality; for mortality at 10 µg/cm2, 10 µg/cm2: 10.0 μg/cm^2
Experimental: On the day prior to the test initiation the drugs to be evaluated are dissolved in acetone and diluted to the desired concentrations. The concentration is calculated so that 400 μl contains the amount of test compound to be placed on each filter paper. 400 μl of this solution is pipetted onto a top (3.7 cm dia.) and bottom (3.5 cm dia.) filter paper disks which are then placed on a ceramic plate to dry. There is a rough and smooth side to the filter paper. Drug should be applied to the rough side which is placed up while drying. When dry the two disks are placed in a Petri dish with the rough sides facing in, separated by one 3 mm glass bead. Dishes are held at room temperature overnight if done the day before the test.
Scab (containing mites) is collected from the ears of infested rabbits the morning of the test. This material is placed in a large Petri dish under an illuminated magnifier. Mites crawl out of the scab and are easily collected on the point of a dissecting needle or one prong of a pair of fine forceps. The top filter paper in each dish is removed and 12 mites are placed on the bottom disk and the top paper replaced. Before replacing the top of the Petri dish the rim of the dish is smeared with Vaseline to trap any escaping mites.
For evaluation tests there are generally 4 replicates of each dose which are counted at 24 hours. After mites are added to the dishes, the dishes in each replicate are placed in a tray which is then placed in a plastic bag with several wet towels and held at room temperature.
After 24 hours dishes are examined under a dissecting scope. Each dish is opened carefully and the top filter paper removed and saved. A 1/2 cm circle is drawn on the bottom filter paper and the paper gently wet in the area of the circle. All mites from the dish are transferred into the wet circle area and counted. The top cover is replaced on each dish and the dishes set aside for at least 15 minutes. After standing the dishes are examined and the mites remaining on the circle counted. These mites are dead. Percent mortality of the mites is then calculated for each treatment.

Dermacentor variabilis = experiment: Filter paper contact test against larval stages of the Dogtick; format: in vivo; conditions: for mortality at 10 µg/cm2, 10 µg/cm2: 10.0 μg/cm^2, 48 hour
Experimental: The test procedure used herein is the same procedure described in Example 2, for evaluating the arylpyrroles for control of Psoroptes cuniculi the Rabbit Ear Mite, with the following exceptions:
(1) Unfed larval ticks are obtained from egg masses laid by gravid female ticks removed from dogs and each replicate receives ticks from the same egg mass;
(2) Ticks survive longer than mites in the Petri dishes, thus readings are made 48 hours or longer after the test is initiated; and
(3) When reading the test it may be necessary to blow on the ticks to stimulate their movement.

Housefly Larvae = experiment: Inhibition of pupation of newly emerged housefly larvae; format: in vivo; conditions: Musca domestica, 168 h, one week, 27° C., corrected by Abbott's formula
Experimental: In this test system newly emerged housefly larvae are grown on an undefined medium of fermented whole milk and dried beef blood. Compounds are added to the milk and activity is determined by the failure of larvae to pupate.
The test is run in 1 oz. plastic medicine cups. Paper toweling is cut in pieces approximately 3.5×10 cm. Three of these pieces are folded accordion style and placed in each paper cup. A piece of masking tape is placed on the outside of the cup to facilitate numbering. Cups should be prepared prior to the day the test is to begin.
Newly hatched housefly larvae are obtained on the morning the test is to begin. The eggs are laid the night before and larvae usually begin to hatch by 9-10 AM the following morning.
Twenty-four hours before the initiation of the test, one half gallon of whole milk is divided into 5 1-liter beakers and placed in an incubator at 39° C.
The morning of the test, one 250 ml beaker is labeled for each treatment. The fermented milk is removed from the incubator, stirred and poured into each of the small beakers. The beakers are then returned to the incubator and 1-2 g of dried beef blood added to each beaker to distribute blood which will not dissolve. The beakers are again returned to the incubator.
Doses of compounds are calculated so that 0.1 ml contains the amount of compound to be added to 100 ml of milk. Compounds should be dissolved in acetone. 100 μl of acetone is added to each control beaker.
Each beaker is removed from incubator and placed on a magnetic stirrer. The compound is added and thoroughly mixed. Then 20 ml portions are removed and added to labelled test cups (4 reps/treatment). Cups are placed in stainless steel tray until all are prepared. […] The tray containing the cups are then placed in a plastic bag and maintained at room temperature.
The media that the fly eggs are laid in is spread out in a green or black pan so that larvae can be observed. Working under an illuminated magnifier 20 larvae are transferred into each cup using a fine paint brush. Each cup is then sealed in a Zip-Loc sandwich bag with a few pinholes in it.
Bags containing cups are placed on a flat tray and placed in a 27° C. incubator for one week. The majority of the larvae will have pupated at this point.
Trays are then removed from the incubator and the number of pupae in each bag recorded. The paper toweling is removed and examined closely for any pupae that have remained in the cups. Most of the pupae will be loose in the bag. A note is also made of any dead or live developed larvae. If there are larvae that appear capable of pupating, the bag may be returned to the incubator for a day to see if they will pupate.
The percent development of pupae is then calculated. The final results are expressed as a percent inhibition of pupation and are corrected for control mortality by using Abbott's formula.

O=[N+]([O-])c1c(-c2ccccc2)[nH]c(C(F)(F)F)c1C(F)(F)F [3-nitro-2-phenyl-4,5-bis(trifluoromethyl)pyrrole]
Rating Against C. Elegans 150 ppm (Caenorhabditis elegans): 9
% Helminth removal [1]: 42%

N#Cc1c(Br)[nH]c(-c2ccc(Cl)cc2)c1Br [2,4-dibromo-5-(p-chlorophenyl)pyrrole-3-carbonitrile]
mortality at 4 µg/cm2, 4 µg/cm2 (Psoroptes cuniculi): 11%

CCOCn1c(-c2ccc(Cl)cc2)c(C#N)c(Br)c1C(F)(F)F [4-Bromo-2-(P-chlorophenyl)-1-(ethoxymethyl)-5-(trifluoromethyl)-2-(α,α,α-trifluoro-P-tolyl)pyrrole-3-carbonitrile]
% Helminth removal [1]: 29%

Cn1c(Cl)c(Cl)c(C#N)c1-c1ccc(OC(F)(F)F)cc1 [4,5-Dichloro-1-methyl-2-[P-(trifluoromethoxy)phenyl]-pyrrole-3-carbonitrile]
mortality at 10 µg/cm2, 10 µg/cm2 (Dermacentor variabilis): 55%

O=[N+]([O-])c1c(-c2ccc(Cl)cc2)[nH]c(Cl)c1Cl [2,3-Dichloro-5-(P-chlorophenyl)-4-nitropyrrole]
Rating Against C. Elegans 150 ppm (Caenorhabditis elegans): 9
mortality at 4 µg/cm2, 4 µg/cm2 (Psoroptes cuniculi): 52%
mortality at 10 µg/cm2, 10 µg/cm2 (Psoroptes cuniculi): 91%
mortality at 10 µg/cm2, 10 µg/cm2 (Dermacentor variabilis): 58%

4-Bromo-1-(ethoxymethyl)-5-(trifluoromethyl)pyrrole-3-carbonitrile
% Helminth removal [1]: 13%

CCOCn1c(-c2ccc(Cl)c(Cl)c2)c(C#N)c(Br)c1C(F)(F)F [4-bromo-2-(3,4-dichlorophenyl)-1-(ethoxymethyl)-5-(trifluoromethyl)-pyrrole-3-carbonitrile]
Rating Against C. Elegans 150 ppm (Caenorhabditis elegans): 9
% Helminth removal [1]: 15% and 28%

N#Cc1cc[nH]c1-c1cc(F)c(Cl)cc1Cl [2-(2,4-Dichloro-5-fluorophenyl)pyrrole-3-carbonitrile]
mortality at 4 µg/cm2, 4 µg/cm2 (Psoroptes cuniculi): 73%

CCOCn1c(-c2ccc(Cl)cc2)c(C#N)c(Br)c1C(F)(F)F [4-bromo-2-(P-chlorophenyl)-1-(ethoxymethyl)-5-(trifluoromethyl)pyrrole-3-carbonitrile]
Rating Against C. Elegans 150 ppm (Caenorhabditis elegans): 9
mortality at 4 µg/cm2, 4 µg/cm2 (Psoroptes cuniculi): 76%
mortality at 1 µg/cm2, 1 µg/cm2 (Dermacentor variabilis; 1.0 μg/cm^2, 48 hour): 77%
mortality at 4 µg/cm2, 4 µg/cm2 (Dermacentor variabilis; 4.0 μg/cm^2, 48 hour): 83%
mortality at 5 µg/cm2, 5 µg/cm2 (Dermacentor variabilis; 5.0 μg/cm^2, 48 hour): 100%
mortality at 10 µg/cm2, 10 µg/cm2 (Dermacentor variabilis): 100%
inhibition at 1 ppm (Housefly Larvae; 1.0 ppm): 15%
inhibition at 2.5 ppm (Housefly Larvae; 2.5 ppm): 0%
inhibition at 5 ppm (Housefly Larvae; 5.0 ppm): 38%
inhibition at 10 ppm (Housefly Larvae): 99%

CCOCn1c(C(F)(F)F)cc([N+](=O)[O-])c1-c1ccc(Cl)c(Cl)c1 [2-(3,4-Dichlorophenyl)-1-(ethoxymethyl)-3-nitro-5-(trifluoromethyl)pyrrole]
mortality at 4 µg/cm2, 4 µg/cm2 (Psoroptes cuniculi): 92%

N#CCn1c(Cl)c(Cl)c(C#N)c1-c1ccc(C(F)(F)F)cc1 [2,3-Dichloro-4-cyano-5-(α,α,α-trifluoro-P-tolyl)-pyrrole-1-acetonitrile]
Rating Against C. Elegans 150 ppm (Caenorhabditis elegans): 9
mortality at 4 µg/cm2, 4 µg/cm2 (Psoroptes cuniculi): 77%
inhibition at 10 ppm (Housefly Larvae): 100%

CCOCn1c(Cl)c(Cl)c(C#N)c1-c1ccc(OC(F)(F)F)cc1 [4,5-Dichloro-1-(ethoxymethyl)-2-[P-(trifluoromethoxy)phenyl]pyrrole-3-carbonitrile]
mortality at 4 µg/cm2, 4 µg/cm2 (Psoroptes cuniculi): 100%

N#Cc1c(-c2ccc(Cl)c(Cl)c2)[nH]c(Cl)c1Cl [4,5-dichloro-2-(3,4-dichlorophenyl)pyrrole-3-carbonitrile]
mortality at 10 µg/cm2, 10 µg/cm2 (Psoroptes cuniculi): 33%
mortality at 10 µg/cm2, 10 µg/cm2 (Dermacentor variabilis): 40%

CCOCn1c(-c2ccc(Br)cc2)c(C#N)c(Br)c1C(F)(F)F [4-Bromo-2-(P-bromophenyl)-1-(ethoxymethyl)-5-(trifluoromethyl)pyrrole-3-carbonitrile]
mortality at 4 µg/cm2, 4 µg/cm2 (Psoroptes cuniculi): 31%

N#Cc1c(-c2ccc([N+](=O)[O-])cc2)[nH]c(Cl)c1Cl [4,5-Dichloro-2-(P-nitrophenyl)-pyrrole-3-carbonitrile]
Rating Against C. Elegans 150 ppm (Caenorhabditis elegans): 9
